Among the test systems are A549 NSCLC; HCT-15 colon; SF-539 CNS; DU-145 prostate; HT29 colon; U251 CNS; SK-MEL-2 melanoma; SN12C renal; SNB-19 CNS; SK-MEL-5 melanoma.
Common to all, as to test: inhibition of tumour cell growth, NCI panel, 48 h

“And” between values parts separate entries of the source, which are not always exact repeats. Equal values may be shown once.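 Protocol summary: plate cells (96-well), add compound at 5 concentrations, incubate 48 h, interpolate endpoints linearly. GI50 marks 50% less growth. TGI: concentration producing complete growth inhibition.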

In the case of `CC1CCC2(NC1)OC1CC3C4CC=C5CC(O)CCC5(C)C4CCC3(C)C1C2C` (centres undefined), the GI50 with A549 NSCLC is 42.4 µM and 20.3 µM; with DU-145 prostate, 94.2 µM and 35.3 µM; in the assay with U251 CNS, 23.7 µM and 4.92 µM; in the assay with SNB-19 CNS it was 18.9 µM and 6.38 µM; with SK-MEL-5 melanoma it was 59 µM and 27.3 µM. The TGI was more than 100 µM with A549 NSCLC; more than 100 µM in the assay with HCT-15 colon; 40.1 µM and 29.4 µM with SF-539 CNS; more than 100 µM in the assay on DU-145 prostate; more than 100 µM in the assay with HT29 colon; 64.7 µM and 23.5 µM in the assay with U251 CNS. Also, the TGI with SK-MEL-2 melanoma is > 100 µM and 45.4 µM; with SN12C renal, 50.8 µM and 38.4 µM; in the assay on SNB-19 CNS, 99.5 µM and 62.1 µM; in the assay with SK-MEL-5 melanoma it was more than 100 µM.

As for `O=C(NOC[C@H](O)CO)c1ccc(F)c(F)c1Nc1ccc(I)cc1F`, the GI50 in the assay on A549 NSCLC was 0.946 µM and 0.1 µM; in the assay with HCT-15 colon, 2.73 µM and 0.919 µM; in the assay with SF-539 CNS, 15.8 µM and > 10 µM; in the assay on DU-145 prostate it was 11.3 µM and 1.67 µM; in the assay on HT29 colon it was < 0.01 µM and 0.00291 µM; with U251 CNS, 1.05 µM and 0.662 µM. Besides, the GI50 in the assay with SK-MEL-2 melanoma is < 0.01 µM and 0.00337 µM; in the assay with SNB-19 CNS, 20.6 µM; in the assay with SK-MEL-5 melanoma it was 4.17 µM and > 10 µM. For the same compound, the TGI in the assay on A549 NSCLC, with HCT-15 colon, in the assay on SF-539 CNS, with DU-145 prostate, in the assay with HT29 colon and in the assay on U251 CNS was more than 100 µM each time. Also, the TGI with SN12C renal, in the assay on SNB-19 CNS and in the assay with SK-MEL-5 melanoma was more than 100 µM each time.

`O=C(/C=C/C12c3ccccc3C(c3ccccc31)C1C(=O)NC(=O)C12)c1ccc(Cl)cc1Cl` (centres undefined): the GI50 was 2.23 µM with A549 NSCLC; 1.9 µM in the assay on HCT-15 colon; 1.59 µM with SF-539 CNS; 1.83 µM with DU-145 prostate; 2.02 µM with HT29 colon; 1.68 µM in the assay with U251 CNS. For the same compound, the GI50 in the assay on SK-MEL-2 melanoma is 1.9 µM; in the assay with SN12C renal it was 1.77 µM; with SNB-19 CNS it was 1.62 µM; in the assay on SK-MEL-5 melanoma, 1.71 µM. The TGI with A549 NSCLC came out at 6.03 µM; in the assay with HCT-15 colon, 4.57 µM; in the assay on SF-539 CNS it was 2.96 µM; in the assay with DU-145 prostate, 3.43 µM; in the assay with HT29 colon, 4.41 µM; in the assay on U251 CNS, 3.06 µM. Further, the TGI with SK-MEL-2 melanoma turned out to be 3.62 µM; in the assay on SN12C renal, 3.29 µM; in the assay with SNB-19 CNS, 3.03 µM; in the assay with SK-MEL-5 melanoma it was 3.34 µM.

As for `COc1ccc2cc(/C=C/C(=O)c3ccc(Cl)cc3Cl)ccc2c1`, the GI50 is 26 µM with A549 NSCLC; 31 µM with HCT-15 colon; 72.9 µM with SF-539 CNS; 32.6 µM in the assay with DU-145 prostate; 27.9 µM with U251 CNS; 24 µM in the assay on SK-MEL-2 melanoma. The GI50 was 20.3 µM in the assay on SN12C renal and 20.9 µM in the assay with SK-MEL-5 melanoma. Further, the TGI in the assay with A549 NSCLC is more than 100 µM; in the assay on HCT-15 colon it was more than 100 µM; in the assay with SF-539 CNS it was more than 100 µM; with DU-145 prostate, more than 100 µM; in the assay with U251 CNS, more than 100 µM; with SK-MEL-2 melanoma, 69.9 µM. For the same compound, the TGI in the assay on SN12C renal stood at 50.9 µM; with SK-MEL-5 melanoma it was 45.2 µM.

In the case of `O=c1c2cc(F)ccc2sc2c(N3CCNCC3)nc3ccc(F)cc3c12`, the GI50 in the assay with HCT-15 colon was 1.44 µM; in the assay with SF-539 CNS, 1.72 µM; in the assay on DU-145 prostate, 1.68 µM; in the assay with HT29 colon, 1.65 µM; in the assay on SK-MEL-2 melanoma, 1.84 µM; in the assay on SN12C renal it was 1.58 µM. Besides, the GI50 with SNB-19 CNS is 1.69 µM; in the assay on SK-MEL-5 melanoma, 1.73 µM. In addition, the TGI with HCT-15 colon is 2.84 µM; with SF-539 CNS it was 3.15 µM; in the assay with DU-145 prostate it was 3.09 µM; in the assay with HT29 colon, 3.22 µM; with SK-MEL-2 melanoma, 3.53 µM; in the assay on SN12C renal it was 3.05 µM. Besides, the TGI in the assay with SNB-19 CNS amounted to 3.2 µM; with SK-MEL-5 melanoma it was 3.11 µM.

Turning to `COc1ccc(/C=C/C(=O)/C=C/c2cc3ccccc3[nH]c2=O)cc1`, the GI50 in the assay with A549 NSCLC was 3.16 µM; in the assay with HCT-15 colon it was 2.41 µM; with SF-539 CNS, 2.63 µM; in the assay with DU-145 prostate, 3.36 µM; in the assay with HT29 colon, 2.47 µM; in the assay on U251 CNS, 1.81 µM. The GI50 with SN12C renal is 2.41 µM; in the assay on SNB-19 CNS, 10.6 µM; with SK-MEL-5 melanoma, 11 µM. Besides, the TGI is 12.6 µM in the assay on A549 NSCLC; 7.69 µM in the assay on HCT-15 colon; 7.13 µM in the assay with SF-539 CNS; 10.3 µM in the assay with DU-145 prostate; 5.94 µM in the assay with HT29 colon; 3.73 µM in the assay on U251 CNS. The TGI amounted to 6.73 µM with SN12C renal, 29 µM in the assay on SNB-19 CNS and 25.1 µM with SK-MEL-5 melanoma.

As to `S=c1snc2n1CCN2`, the GI50 with A549 NSCLC was more than 100 µM; in the assay with HCT-15 colon, more than 100 µM; with SF-539 CNS it was more than 100 µM; in the assay on DU-145 prostate, 91.3 µM; with HT29 colon, 65.9 µM; with U251 CNS it was more than 100 µM. Besides, the GI50 was 10.6 µM with SN12C renal, more than 100 µM in the assay with SNB-19 CNS and 58.2 µM with SK-MEL-5 melanoma. Moreover, the TGI in the assay with A549 NSCLC, in the assay with HCT-15 colon, with SF-539 CNS, in the assay with DU-145 prostate, in the assay with HT29 colon and with U251 CNS was more than 100 µM each time. The TGI with SN12C renal is 86.8 µM; with SNB-19 CNS, more than 100 µM; in the assay with SK-MEL-5 melanoma, more than 100 µM.

On to `CCOC(=O)C(Cc1c[nH]c2c(N(CCO)CCO)cccc12)(NC(C)=O)C(=O)OCC`, for which the GI50 in the assay on A549 NSCLC was more than 1000 µM; in the assay on HCT-15 colon, 182 µM; in the assay with SF-539 CNS it was more than 1000 µM; in the assay with DU-145 prostate it was 499 µM; in the assay on HT29 colon, 140 µM; in the assay on U251 CNS, 183 µM. The GI50 in the assay with SN12C renal was 141 µM; in the assay on SNB-19 CNS, more than 1000 µM; in the assay with SK-MEL-5 melanoma, 323 µM. Further, the TGI in the assay with A549 NSCLC is more than 1000 µM; with HCT-15 colon, more than 1000 µM; in the assay on SF-539 CNS, more than 1000 µM; in the assay with DU-145 prostate it was more than 1000 µM; in the assay on HT29 colon, 417 µM; in the assay on U251 CNS, 420 µM. Also, the TGI in the assay with SN12C renal is 290 µM; with SNB-19 CNS it was more than 1000 µM; with SK-MEL-5 melanoma it was more than 1000 µM.

For the origin of these results see PubChem BioAssay (NCI).
